Legend:
WT HSCs = assay: ADP-heptose treatment of low-dose irradiated chimeric mice: donor HSC number and engraftment; type: in vivo, mouse; conditions: ADP-heptose 0.5 mg/kg for 2 weeks
From the text: (§1) To model pre-leukemic clonal hematopoiesis, chimeric mice were generated as aas follows. Briefly, mixture of 1×10^6 whole bone marrow cells (WBM) were obtained from Poly (I:C) treated wild-type (Dnmt3a^+/+; MxCre^+, called Dnmt3a^WT) or mutant mice (Dnmt3a^f/f; MxCre^+, called Dnmt3a^KO) or double mutant mice (Dnmt3a^f/f; MxCre^+; Alpk1^KO, called Dnmt3a^KO; Alpk1^KO) (CD45.2^+), and transplanted into low-dose (2.5 Gy) irradiated recipient mice (CD45.1^+; 6-10 weeks of age). 8 weeks post-transplant, chimeric mice were treated with either water (H2O) or DSS (2.5%) for 1 week, and allowed to recover for 1 more week on water after which flow cytometry was performed on BM. In separate experiment, chimeric mice were pre-treated with broad spectrum antibiotics (ABX) for 4 weeks, and then subjected to DSS for 1 week after which flow cytometry performed on BM. In a separate set of experiment, chimeric mice were treated with either H2O or ADP-heptose (0.5 mg/kg) for 2 weeks, and flow cytometry performed after 2 more weeks on BM. In all the experiments, secondary transplantation was performed by purifying donor HSCs (CD45.2^+Lin^−Sca-1^+c-Kit^+Flk2^−CD150^+CD48^−) and transplanting 100 HSCs with 200,000 helper WBM cells (CD45.1+) into lethally irradiated (8 Gy) recipient mice (CD45.1^+), and donor chimerism in PB examined by flow cytometry.

[1] = test system: Dnmt3a^−/−; Alpk1^−/− HSCs; assay: ADP-heptose treatment of low-dose irradiated chimeric mice: donor HSC number, EdU proliferation, secondary transplant; type: in vivo, mouse
From the text: as §1

[2] = test system: Dnmt3a^−/−; Alpk1^−/− HSPCs; assay: NF-κB activation in vitro (immunoblot); type: cell-based, mouse
Dnmt3a^−/− HSCs = assay: ADP-heptose treatment of low-dose irradiated chimeric mice: donor HSC number in BM, EdU proliferation, secondary transplant; type: in vivo, mouse
From the text: as §1

In the case of Nc1ncnc2c1ncn2[C@@H]1O[C@H](COP(=O)(O)OP(=O)(O)O[C@@H]2O[C@H]([C@H](O)CO)[C@@H](O)[C@H](O)[C@@H]2O)[C@@H](O)[C@H]1O [ADP-heptose, ADP-D-glycero-β-D-manno-heptose], the “WT HSCs numbers and engraftment in recipient mice” value (WT HSCs) is reported as “did not affect”, the “proliferation of HSCs in vivo (EdU)” value [1] is reported as “completely abrogated” and the “expansion and self-renewal in recipient mice” value ([1]; ADP-heptose administration) is reported as “unable to expand nor self-renew”. For the same compound, the “NF-κB activation upon ADP-heptose stimulation” value [2] was “unable to activate NF-κB”, the “expansion of Dnmt3a^−/− HSCs in BM” value (Dnmt3a^−/− HSCs; ADP-heptose 0.5 mg/kg for 2 weeks) was “rapid and significant expansion” and the “proliferation of HSCs in vivo (EdU)” value (Dnmt3a^−/− HSCs; Dnmt3a^−/− HSCs, within 2 weeks) was “significant proliferation”. For the same compound, the “self-renewal in secondary recipient mice” value (Dnmt3a^−/− HSCs; secondary transplant of donor HSCs) was “sustained self-renewal”.
